≈ marks a conversion by molar mass, not a printed value. Where “and” joins values, the source holds several entries; their conditions need not be identical. Equal values may be shown once.
Legend:
Format in all cases: biochemical
[1] = tested on: protein glycation; assay: Protein glycation assay; conditions: in vitro
Procedure: Briefly, 50 µl of protein solution in distil water was added to 10 µl of glyceraldehyde solution in black microplates. The plates were sealed and incubated at 37 °C for 24 h. After incubation, test compound solutions were then added. Blank containing distilled water served as a negative control (untreated), while Rutin as a positive control. The fluorescence was measured at 370 nm (excitation), and 440 nm (emission). The percentage inhibition was calculated using the following formula:
Percentinhibition=1−fluorescenceoftestwell/fluoresecenceofnegativecontrolx100

[2] = target: human recombinant DPP-IV enzyme (Homo sapiens, UniProt P27487); assay: DPP-IV inhibition assay; conditions: in vitro; read-out: IC50 against DPP-IV (converted)
Procedure: The assay was carried out according to the established method with slight modification. Various concentrations of the synthesized compounds were added to human recombinant DPP-IV enzyme solution in respective wells of a 96-well plate. After incubation, pNA substrate (Gly-Pro-pNA) dissolved in Tris buffer was added to initiate the reaction and further incubated. After incubation, acetic acid solution was added to stop the reaction and the absorbance was recorded. The percentage inhibition was calculated by using the following equation:
Percentinhibition=1−(absorbanceofthetestwell/absorbanceoftheuntreatedcontrol)x100

[3] = tested on: α-amylase; assay: In vitro α-amylase inhibition; conditions: for maximum inhibition of α-amylase: at 1000 μg/mL; for IC50 against α-amylase: in vitro
Procedure: The standard protocol of in vitro α-amylase inhibition was performed according to Naeem et al. 70 µL of a 50 mM phosphate buffer (pH 6.0) were combined with 100 µL of the reaction solution. […] (0.057 units) of an enzyme, and 50 µL of the compound being examined was added to the solution. After being thoroughly blended, a 10-minute pre-incubation at 25 °C was carried out. The absorbance of the resulting mixture was measured at a wavelength of 400 nm. Further, a solution equal to 10 µL a 0.5 mM concentration of p-nitrophenyl glucopyranoside was added to the solution, and re-incubation carried out at a 25 °C temperature. The absorbance of the solution was measured at a wavelength of 400 nm after incubation.

SMILES	IC50 against protein glycation [1]	IC50 [2]	maximum inhibition of α-amylase [3]	IC50 against α-amylase [3]
C[C@@H]1O[C@@H](OC[C@H]2O[C@@H](Oc3c(-c4ccc(O)c(O)c4)oc4cc(O)cc(O)c4c3=O)[C@H](O)[C@@H](O)[C@@H]2O)[C@H](O)[C@H](O)[C@H]1O [Rutin, reference compound]	20.780 µg/mL (≈ 34 µM)			
Cc1ccc(/C=C2/C(=O)Nc3cc(Cl)ccc32)c(C)c1 [Compound 1, (E)-3-(2,4-Dimethylbenzylidene)-6-chloroindolin-2-one]	210.592 µg/mL (≈ 742 µM)	110 µM	80%	32.917 µg/mL (≈ 116 µM)
CSc1ccc(/C=C2/C(=O)Nc3cc(Cl)ccc32)cc1 [Compound 2, (E)-3-(4-(Methylthio)benzylidene)-6-chloroindolin-2-one]	341.551 µg/mL (≈ 1130 µM)	156 µM	75%	42.691 µg/mL and 42.69 µg/mL

From publication PMC12084062, “Integrating in vitro and in silico approaches for exploring antidiabetic potential of dimethyl and thiomethyl indolinone derivatives” (PLOS One, 2025)
